Assay results from patent US20240415923A1, “RNA-Dependent RNA Polymerase Inhibitory Compounds, Uses in Managing Viral Infections, and Pharmaceutical Compositions” (priority 2023, published 2024).
Where a name gives a salt, the structure may show the parent alone. Starred links: 1 amine or outer side, 2 acyl side, 3 side chain; linkers in the order of their positions; H or OH if unused. Positions of bridges follow the written chain, without caps; N, C: chain ends. Non-standard residues stand in square brackets, D forms with d. Residues, ends and D or L forms follow the SMILES beside them. *: point of attachment. hTyr(3S-OH,4S-OH,3'-OSO3H) = N[C@H](C(=O)O)[C@H](O)[C@@H](O)c1ccc(O)c(OS(=O)(=O)O)c1; Orn(4R-OH,5R-OH) = O=C([C@H](C[C@@H](O)[C@@H](O)N[*:3])N[*:1])[*:2]; Pro(3S-OH,4S-Me) = C[C@H]1CN[C@H](C(=O)O)[C@H]1O; X1 = CCCCCOc1ccc(-c2cc(-c3ccc(C(=O)*)cc3)no2)cc1; Gln(3R-OH) = NC(=O)C[C@@H](O)[C@H](N)C(=O)O; Hyp = O=C(O)[C@@H]1C[C@@H](O)CN1

What was measured:
VSBV polymerase (L-P) = assay type: biochemical, variegated squirrel bornavirus (VSBV); conditions: 1 mM
[1] = molecular target: VSV polymerase (L-P1-106) (Vesicular stomatitis Indiana virus, UniProt P03523); assay type: biochemical; conditions: 1 mM
[2] = molecular target: T1, SARS-COV2 polymerase (Nsp7-Nsp8-Nsp12) (Severe acute respiratory syndrome coronavirus 2, UniProt P0DTD1); assay type: biochemical, severe acute respiratory syndrome coronavirus 2 (SARS-COV2); conditions: 1 mM
T1 construct: SARS-COV2 polymerase (Nsp7-Nsp8-Nsp12); made in house

NiV polymerase (L-P) = NiV polymerase (L-P) (Nipah virus, UniProt Q997F0); assay type: biochemical; conditions: 1 mM
Sequence of NiV polymerase (L-P) (Q997F0 whole entry, looked up): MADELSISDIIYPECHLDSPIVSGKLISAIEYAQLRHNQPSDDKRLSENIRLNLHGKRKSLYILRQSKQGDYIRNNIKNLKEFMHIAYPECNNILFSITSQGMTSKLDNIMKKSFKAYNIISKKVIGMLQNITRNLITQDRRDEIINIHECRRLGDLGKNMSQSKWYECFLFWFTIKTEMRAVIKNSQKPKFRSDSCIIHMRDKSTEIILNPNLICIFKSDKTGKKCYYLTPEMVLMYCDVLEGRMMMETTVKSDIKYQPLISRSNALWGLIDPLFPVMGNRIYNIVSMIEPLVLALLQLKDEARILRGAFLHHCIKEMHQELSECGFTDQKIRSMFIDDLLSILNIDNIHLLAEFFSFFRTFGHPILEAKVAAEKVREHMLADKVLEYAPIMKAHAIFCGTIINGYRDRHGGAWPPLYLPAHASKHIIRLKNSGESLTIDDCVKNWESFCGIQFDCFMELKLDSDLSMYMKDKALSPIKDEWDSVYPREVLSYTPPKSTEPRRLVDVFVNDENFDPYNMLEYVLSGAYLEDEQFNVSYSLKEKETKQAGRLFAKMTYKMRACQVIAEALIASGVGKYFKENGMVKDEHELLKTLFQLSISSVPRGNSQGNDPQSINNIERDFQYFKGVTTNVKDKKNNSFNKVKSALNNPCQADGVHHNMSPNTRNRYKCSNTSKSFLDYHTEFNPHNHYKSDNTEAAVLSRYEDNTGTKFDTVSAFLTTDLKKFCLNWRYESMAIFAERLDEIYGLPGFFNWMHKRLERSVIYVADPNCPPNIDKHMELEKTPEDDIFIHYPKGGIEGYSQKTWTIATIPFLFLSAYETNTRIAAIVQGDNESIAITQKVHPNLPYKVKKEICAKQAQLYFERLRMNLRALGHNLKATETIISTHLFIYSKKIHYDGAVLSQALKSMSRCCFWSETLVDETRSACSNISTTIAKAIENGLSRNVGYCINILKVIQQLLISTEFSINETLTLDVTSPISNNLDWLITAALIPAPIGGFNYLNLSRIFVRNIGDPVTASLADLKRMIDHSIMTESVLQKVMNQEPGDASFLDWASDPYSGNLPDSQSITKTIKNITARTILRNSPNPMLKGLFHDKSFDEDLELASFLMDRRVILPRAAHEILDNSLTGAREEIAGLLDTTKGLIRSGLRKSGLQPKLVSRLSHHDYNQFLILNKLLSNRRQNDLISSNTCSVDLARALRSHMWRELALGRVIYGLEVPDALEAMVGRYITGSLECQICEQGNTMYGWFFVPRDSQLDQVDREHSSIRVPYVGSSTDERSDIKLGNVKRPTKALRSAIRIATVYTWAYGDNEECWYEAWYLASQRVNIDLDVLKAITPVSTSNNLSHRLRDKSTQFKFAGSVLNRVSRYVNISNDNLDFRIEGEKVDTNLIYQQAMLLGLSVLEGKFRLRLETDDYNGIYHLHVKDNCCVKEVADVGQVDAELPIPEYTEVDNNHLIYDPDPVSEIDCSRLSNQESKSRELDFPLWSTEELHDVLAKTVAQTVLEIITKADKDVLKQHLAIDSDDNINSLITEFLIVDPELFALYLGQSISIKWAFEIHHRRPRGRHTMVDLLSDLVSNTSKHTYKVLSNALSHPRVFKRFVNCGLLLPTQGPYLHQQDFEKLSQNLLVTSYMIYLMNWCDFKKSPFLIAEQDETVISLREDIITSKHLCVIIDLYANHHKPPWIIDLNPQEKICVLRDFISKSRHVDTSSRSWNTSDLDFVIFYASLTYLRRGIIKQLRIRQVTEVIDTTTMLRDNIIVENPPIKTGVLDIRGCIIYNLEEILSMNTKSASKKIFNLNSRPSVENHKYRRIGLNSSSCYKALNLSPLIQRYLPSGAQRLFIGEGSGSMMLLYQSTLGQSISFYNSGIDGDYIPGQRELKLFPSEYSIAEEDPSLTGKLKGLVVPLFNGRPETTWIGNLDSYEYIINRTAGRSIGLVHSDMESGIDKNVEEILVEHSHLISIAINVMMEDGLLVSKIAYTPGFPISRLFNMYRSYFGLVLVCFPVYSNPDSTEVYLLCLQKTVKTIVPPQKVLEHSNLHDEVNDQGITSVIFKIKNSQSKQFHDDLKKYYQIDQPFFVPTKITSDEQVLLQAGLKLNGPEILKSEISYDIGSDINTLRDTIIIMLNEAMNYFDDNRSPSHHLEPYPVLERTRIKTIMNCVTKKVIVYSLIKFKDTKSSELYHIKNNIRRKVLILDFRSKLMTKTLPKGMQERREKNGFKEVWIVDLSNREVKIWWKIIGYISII

RSV polymerase (L-P) [3] = molecular target: T2, RSV polymerase (L-P) (Human respiratory syncytial virus A, UniProt P28887); assay: in vitro primer-based RNA synthesis assay, TrC12 template and Tr4 primer; assay type: biochemical; conditions: 1 mM, TrC12 template, FIG. 3B
T2 sequence (P03421 whole entry): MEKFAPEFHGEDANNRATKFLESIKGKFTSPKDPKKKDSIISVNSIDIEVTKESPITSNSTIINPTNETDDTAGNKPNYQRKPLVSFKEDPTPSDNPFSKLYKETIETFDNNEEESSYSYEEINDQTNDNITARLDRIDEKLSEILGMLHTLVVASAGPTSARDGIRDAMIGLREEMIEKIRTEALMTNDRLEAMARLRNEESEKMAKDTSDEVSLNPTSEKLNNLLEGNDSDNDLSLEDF
T2 sequence (P28887 whole entry): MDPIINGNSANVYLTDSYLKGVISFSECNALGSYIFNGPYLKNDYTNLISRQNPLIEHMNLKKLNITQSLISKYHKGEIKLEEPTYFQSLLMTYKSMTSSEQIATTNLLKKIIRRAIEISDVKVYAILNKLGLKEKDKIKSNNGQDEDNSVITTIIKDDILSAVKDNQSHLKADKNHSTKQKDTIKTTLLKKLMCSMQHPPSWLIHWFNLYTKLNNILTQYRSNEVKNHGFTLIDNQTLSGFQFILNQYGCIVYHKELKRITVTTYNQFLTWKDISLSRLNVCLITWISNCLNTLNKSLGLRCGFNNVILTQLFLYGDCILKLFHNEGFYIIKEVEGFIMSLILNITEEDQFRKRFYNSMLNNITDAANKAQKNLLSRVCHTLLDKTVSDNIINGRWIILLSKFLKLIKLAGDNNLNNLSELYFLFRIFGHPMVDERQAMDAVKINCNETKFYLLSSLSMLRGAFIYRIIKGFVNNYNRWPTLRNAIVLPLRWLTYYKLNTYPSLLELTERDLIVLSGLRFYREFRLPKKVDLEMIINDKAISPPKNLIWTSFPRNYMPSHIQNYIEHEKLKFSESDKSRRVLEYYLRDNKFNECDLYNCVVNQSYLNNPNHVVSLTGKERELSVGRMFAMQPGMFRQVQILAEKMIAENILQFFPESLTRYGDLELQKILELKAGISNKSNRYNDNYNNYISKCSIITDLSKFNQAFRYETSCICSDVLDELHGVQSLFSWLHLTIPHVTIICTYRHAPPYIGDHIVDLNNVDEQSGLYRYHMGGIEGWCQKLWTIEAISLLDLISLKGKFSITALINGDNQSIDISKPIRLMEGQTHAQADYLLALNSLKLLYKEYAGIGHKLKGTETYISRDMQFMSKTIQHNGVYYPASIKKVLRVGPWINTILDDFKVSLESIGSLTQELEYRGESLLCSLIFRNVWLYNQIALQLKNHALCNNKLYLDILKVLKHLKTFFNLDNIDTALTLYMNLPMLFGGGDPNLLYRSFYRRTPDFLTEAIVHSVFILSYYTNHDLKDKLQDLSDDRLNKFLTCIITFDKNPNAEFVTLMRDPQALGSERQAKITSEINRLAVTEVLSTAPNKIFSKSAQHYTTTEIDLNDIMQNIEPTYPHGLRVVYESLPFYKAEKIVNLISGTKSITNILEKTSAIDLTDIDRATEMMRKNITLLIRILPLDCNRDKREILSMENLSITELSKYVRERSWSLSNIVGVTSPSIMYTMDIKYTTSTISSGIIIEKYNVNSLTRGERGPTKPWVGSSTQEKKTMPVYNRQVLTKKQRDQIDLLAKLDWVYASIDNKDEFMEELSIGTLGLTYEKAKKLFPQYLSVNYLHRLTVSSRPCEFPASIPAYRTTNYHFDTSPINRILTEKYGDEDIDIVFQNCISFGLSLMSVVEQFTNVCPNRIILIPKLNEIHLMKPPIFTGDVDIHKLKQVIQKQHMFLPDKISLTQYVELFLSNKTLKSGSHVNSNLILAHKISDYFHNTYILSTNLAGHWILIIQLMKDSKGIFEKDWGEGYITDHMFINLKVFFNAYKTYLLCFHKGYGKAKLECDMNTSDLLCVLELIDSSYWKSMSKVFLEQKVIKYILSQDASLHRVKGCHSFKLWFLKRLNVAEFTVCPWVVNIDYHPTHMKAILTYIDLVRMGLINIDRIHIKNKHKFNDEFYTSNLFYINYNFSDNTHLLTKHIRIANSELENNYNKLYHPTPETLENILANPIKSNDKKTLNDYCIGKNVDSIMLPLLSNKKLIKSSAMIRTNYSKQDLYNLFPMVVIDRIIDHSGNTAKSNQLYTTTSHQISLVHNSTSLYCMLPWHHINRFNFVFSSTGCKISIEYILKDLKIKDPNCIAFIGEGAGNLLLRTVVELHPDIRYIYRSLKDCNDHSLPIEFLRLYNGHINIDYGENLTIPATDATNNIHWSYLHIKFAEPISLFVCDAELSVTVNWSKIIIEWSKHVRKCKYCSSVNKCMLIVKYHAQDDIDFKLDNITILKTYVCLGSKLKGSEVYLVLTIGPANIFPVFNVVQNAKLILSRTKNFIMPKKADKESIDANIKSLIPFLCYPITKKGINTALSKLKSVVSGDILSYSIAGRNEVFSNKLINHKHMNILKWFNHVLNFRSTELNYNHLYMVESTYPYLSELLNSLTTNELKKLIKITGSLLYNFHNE

RSV polymerase (L-P) [4] = molecular target: T2, RSV polymerase (L-P); assay: in vitro de novo RNA synthesis assay, TrC12 template; assay type: biochemical

| SMILES | inhibition of RNA synthesis activity of VSBV polymerase (VSBV polymerase (L-P)) | inhibition of RNA synthesis activity of VSV polymerase [1] | inhibition of RNA synthesis activity of SARS-COV2 polymerase [2] | inhibition of RNA synthesis activity of NiV polymerase (NiV polymerase (L-P)) | primer-based RNA synthesis activity of RSV polymerase, rank among the tested molecules (RSV polymerase (L-P) [3]) | impact on the RSV polymerase activity in time course (RSV polymerase (L-P) [4]; 0, 25 and 50 μM, FIG. 5A) | activity of RSV polymerase in time course at 50 μM (RSV polymerase (L-P) [4]; 50 μM versus 0 and 25 μM, FIG. 5A) | RSV polymerase activity retained relative to the control group (RSV polymerase (L-P) [4]; 1 mM small molecule in 10% DMSO, 10% DMSO negative control, FIG. 2) [%] | inhibition of RSV polymerase in the in vitro assay (in words) (RSV polymerase (L-P) [4]; 1 mM, FIG. 2) | de novo RNA synthesis activity of RSV polymerase, rank among the tested molecules (RSV polymerase (L-P) [4]; 1 mM, FIG. 3A, compared with 10 other molecules) |
| --- | --- | --- | --- | --- | --- | --- | --- | --- | --- | --- |
| CCCCCOc1ccc(-c2cc(-c3ccc(C(=O)N[C@H]4C[C@@H](O)[C@@H](O)NC(=O)[C@@H]5[C@@H](O)[C@@H](C)CN5C(=O)[C@H]([C@H](O)CC(N)=O)NC(=O)[C@H]([C@H](O)[C@@H](O)c5ccc(O)c(OS(=O)(=O)O)c5)NC(=O)[C@@H]5C[C@@H](O)CN5C(=O)[C@H]([C@@H](C)O)NC4=O)cc3)no2)cc1 [Micafungin, 5-(2-(20-(3-amino-1-hydroxy-3-oxopropyl)-2,11,12,15-tetrahydroxy-6-(1-hydroxyethyl)-16-methyl-5,8,14,19,22,25-hexaoxo-9-(4-(5-(4-(pentyloxy)phenyl)isoxazol-3-yl)benzamido)tetracosahydro-1H-dipyrrolo[2,1-c: 2′,1′-1][1,4,7,10,13,16]hexaazacyclohenicosin-23-yl)-1,2-dihydroxyethyl)-2-hydroxyphenyl hydrogen sulfate] (X1-[Orn(4R-OH,5R-OH)]T[Hyp][hTyr(3S-OH,4S-OH,3'-OSO3H)][Gln(3R-OH)][Pro(3S-OH,4S-Me)]; lactam 1-C) | inhibit | inhibit | inhibit | inhibit | best inhibitors | time and concentration dependent | lowest at all time points | 29.6 | significant inhibitory activity | lowest |
| CN1C(N)=NC(C)(c2cc(NC(=O)c3ccc(F)cn3)ccc2F)CS1(=O)=O (stereo not drawn) [Verubecestat, N-(3-(3-amino-2,5-dimethyl-1,1-dioxido-5,6-dihydro-2H-1,2,4-thiadiazin-5-yl)-4-fluorophenyl)-5-fluoropicolinamide] |  |  |  |  |  |  |  |  | showed inhibition |  |
| Cc1ccc(-n2[nH]c(C)c(N=Nc3cccc(-c4cccc(-c5nnn[nH]5)c4)c3O)c2=O)cc1C [Totrombopag, 2-(3,4-dimethylphenyl)-4-((2-hydroxy-3′-(1H-tetrazol-5-yl)-[1,1′-biphenyl]-3-yl)diazenyl)-5-methyl-1,2-dihydro-3H-pyrazol-3-one] | inhibit | inhibit | inhibit | inhibit |  |  |  |  |  |  |
